Measurements: EP4691487A1, “METHOD FOR INCREASING CONCENTRATION OF MACROMOLECULAR DRUG IN TUMOR TISSUE” (priority 2023, dated 2024)

Tests used:
[1] = system: human pancreatic cancer PC-07-0067 model; assay: Anti-tumor efficacy in pancreatic cancer PC-07-0067 subcutaneous xenograft (PDX) model (Example 4); format: in vivo, BALB/c nude mice; details: TRODELVY 3 mg/kg IV BIW
Description: Establishment of PDX model: The human pancreatic cancer PC-07-0067 model was initially established from a surgically resected clinical sample, which was designated as P0 after being inoculated into nude mice. Inoculation of tumor tissue from P0 into the next generation of mice is referred to as P1, and so on for subsequent serial passages in nude mice. FP3 tumors were resuscitated from P2 generation tissue, and the next generation from FP3 was designated as FP4, and so on.
Tumor Inoculation: A 20-30 mm^3 PC-07-0067 FP5 tumor tissue piece was subcutaneously inoculated on the right flank of each mouse for tumor growth. The mice were randomized for dosing when the mean tumor volume reached approximately 100-150 mm^3.
Experimental indicator: The experimental indicator is to examine whether tumor growth is inhibited, delayed or cured. Tumor diameter is measured with a vernier caliper twice a week. The formula for calculating tumor volume is: V = 0.5a × b^2, a and b represent the long diameter and short diameter of the tumor, respectively.
The anti-tumor efficacy of a compound is evaluated using the TGI(%) or tumor proliferation rate (T/C)(%). TGI(%) reflects the rate of tumor growth inhibition.
Tumor proliferation rate T/C (%): The calculation formula is as follows: T/C(%) = Ti/Vi × 100 %, wherein Vi is the mean tumor volume of the solvent control group at a certain measurement, and Ti is the mean tumor volume of the dosing group at the same measurement.

[2] = system: PC-07-006 model; assay: Anti-human IgG secondary antibody staining of TRODELVY bound to tumor cells in vivo (Example 5); set-up: species or system BALB/c nude mice; details: tissue samples from Example 4
Description: The experimental method was the same as in Example 3. The experimental tissue samples were from Example 4. The anti-human IgG secondary antibody was able to recognize the binding of TRODELVY to tumor cells in vivo. […] Example 6: In vivo pharmacological study of the tumor infiltration level of test article, fluorescein Cy5.5-labeled Hanquyou( ? ) antibody (H-Cy5.5), in a subcutaneous xenograft tumor model of human gastric cancer NCI-N87 cells in Balb/c-nude mice after administration of IN10018

**Q.** What does the source list for TRODELVY?
**A.** T/C ([1]; after 14 days of dosing, T/C = Ti/Vi, IN10018 12.5 mg/kg PO QD): 27.95%; TGI ([1]; after 14 days of dosing, IN10018 12.5 mg/kg PO QD): 78.91%; mean tumor volumes ([1]; day 14, IN10018 12.5 mg/kg PO QD (tartrate salt weighed)): 423 mm^3; antibody-tumor cell binding [2]: significant antibody-tumor cell binding
